Experimental data published in patent US20260165956A1, “IN VIVO TARGETING OF THERAPEUTIC MOLECULES TO THE RETINA VIA THE OPTICAL SYSTEM OF THE EYE” (SEMMELWEIS EGYETEM, priority 2022, published 2026).
Where “and” joins values, the source holds several entries; their conditions need not be identical. Equal entries are not always repeated. Entries after “also recorded” stand apart in the source; their conditions may differ. Where two headings read alike, the source gives them in different places.

Assays:
VEGFR2 = target: T1, VEGFR2 (Homo sapiens, UniProt P35968); assay: VEGFR2/NFAT Reporter HEK293 luciferase assay of VEGF signaling; assay type: cell-based; settings: VEGFR2-HEK cells; for IC50: 20 ng/ml VEGF165; for Dark/Light: ratio of IC50 dark to IC50 light
T1 construct: host or cells: HEK293 (VEGFR2/NFAT Reporter recombinant cell line)
T1 sequence (P35968 20-1356): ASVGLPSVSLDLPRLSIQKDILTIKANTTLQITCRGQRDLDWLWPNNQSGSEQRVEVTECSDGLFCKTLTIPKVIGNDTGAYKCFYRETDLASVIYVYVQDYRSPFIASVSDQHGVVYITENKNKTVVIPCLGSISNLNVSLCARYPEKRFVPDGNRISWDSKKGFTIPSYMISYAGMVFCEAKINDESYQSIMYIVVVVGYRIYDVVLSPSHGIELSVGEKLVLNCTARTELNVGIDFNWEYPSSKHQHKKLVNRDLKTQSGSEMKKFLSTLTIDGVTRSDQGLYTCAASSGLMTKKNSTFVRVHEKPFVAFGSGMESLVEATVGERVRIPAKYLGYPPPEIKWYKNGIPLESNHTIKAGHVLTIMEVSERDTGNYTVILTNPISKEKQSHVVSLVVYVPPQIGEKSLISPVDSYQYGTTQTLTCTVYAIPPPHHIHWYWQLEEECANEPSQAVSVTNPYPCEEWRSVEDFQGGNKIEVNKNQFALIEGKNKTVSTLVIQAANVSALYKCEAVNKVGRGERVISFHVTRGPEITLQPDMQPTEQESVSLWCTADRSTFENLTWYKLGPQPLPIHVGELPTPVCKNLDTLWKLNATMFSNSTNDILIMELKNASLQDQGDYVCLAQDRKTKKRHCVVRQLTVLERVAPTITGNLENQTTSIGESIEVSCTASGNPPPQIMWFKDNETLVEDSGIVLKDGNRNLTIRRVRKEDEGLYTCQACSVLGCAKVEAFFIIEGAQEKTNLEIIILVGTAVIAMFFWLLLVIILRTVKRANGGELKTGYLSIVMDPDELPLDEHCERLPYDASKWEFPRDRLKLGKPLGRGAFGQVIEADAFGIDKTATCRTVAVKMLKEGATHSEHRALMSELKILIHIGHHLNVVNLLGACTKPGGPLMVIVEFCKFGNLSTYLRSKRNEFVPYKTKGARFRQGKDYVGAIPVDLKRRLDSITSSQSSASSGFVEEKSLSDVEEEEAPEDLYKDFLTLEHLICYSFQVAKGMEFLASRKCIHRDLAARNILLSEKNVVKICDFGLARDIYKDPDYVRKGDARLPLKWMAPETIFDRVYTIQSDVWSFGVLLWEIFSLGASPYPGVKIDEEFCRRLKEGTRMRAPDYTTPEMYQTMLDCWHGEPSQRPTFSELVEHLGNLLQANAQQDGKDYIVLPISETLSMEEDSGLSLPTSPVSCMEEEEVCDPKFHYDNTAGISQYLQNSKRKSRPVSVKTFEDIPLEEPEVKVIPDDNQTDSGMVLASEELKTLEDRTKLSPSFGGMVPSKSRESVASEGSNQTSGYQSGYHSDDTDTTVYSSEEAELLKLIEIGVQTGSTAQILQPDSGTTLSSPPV
Method: We have cultured the cells and conducted the measurements according to the manufacturer's instructions.
On the day preceding the measurement, 40 000 recombinant HEK cells were seeded into each well of a 96 well plate in a way that the experiments could be conducted in triplicates. […] For the conditions requiring irradiation, the plate was placed under a cold white LED light source within the incubator (37° C., 5% CO2) for the first 10 minutes of the 1-hour-long incubation with the inhibitors to imitate day-light, while the other plate was kept in the dark (also at 37° C., 5% CO2). Following the pre-incubation with inhibitors we treated the cells for 4 hours with VEGF without removing the inhibitors. For this purpose we used 20 ng/ml of commercially available human VEGF165 (Sf9 derived, from BPS BioScience Inc., Cat. No.: 91001-1) added directly into the cell-culture medium.
The IC50 values were calculated using the GraphPad Prism software.

[1] = test system: human retinal microvascular endothelial cells (HRMEC); assay: tubulogenesis (in vitro angiogenesis) assay, number of meshes; assay type: cell-based; settings: for IC50 / Dark/Light: HRMEC tubulogenesis; for Dark/Light: ratio of IC50 dark to IC50 light
Source text: These cells preserve their endothelial nature, and when cultured on an appropriate extracellular matrix, they spontaneously form a network that corresponds to a network of capillaries. Images of such networks taken with a microscope can be quantified, and several parameters (such as the number of segments, number of closed loops, number of junction points) of the network can be quantified and used as a parameter describing the angiogenesis in vitro [Staton et al., 2009].
The inventors have applied their proprietary azidated inhibitors described in the present patent in an ascending series of concentrations. For all the said azidated inhibitors, the in vitro angiogenesis experiments were carried out both in complete darkness and in defined illumination conditions. The number of closed loops (number of meshes) was identified using an image recognition algorithm, and an IC50 curve was fitted onto the number of meshes plotted against substance concentration. […] These experiments thus provided further proof, that light increases the inhibitory potential of the novel azidated compounds described in the present patent.
In vitro angiogenesis (hereinafter referred to as “tubulogenesis”) mimicks several features of angiogenetic processes observed in vivo in vertebrate animals [Staton et al., 2009] and is based on the VEGF-dependent self-organizing capacity of endothelial cells via which tube-like structures emerge that share many properties with in vivo observed blood vessels. Therefore, the inhibitory potential of the newly synthetized molecules of the present invention was also assessed in tubulogenesis assay using human retinal microvascular endothelial cells (HRMEC) derived from post mortem human donors. When seeded onto a collagen and laminin containing matrix, HRMEC spontaneously form a two-dimensional blood-vessel-like network displaying several quantifiable features that can be used to measure angiogenic potential [Staton et al., 2009]. The newly synthetized, PMO-containing VEGFR inhibitors were added to the culture medium in increasing concentrations to test whether they can inhibit the spontaneous formation of the network from HRMEC. The increasing concentrations allowed the inventors to calculate the IC50 values for each inhibitor molecule. The results of these experiments (table 2.) have shown that the new, PMO-containing azidated inhibitors were capable of inhibiting the tubulogenesis. Furthermore, in the presence of light, the inhibition was stronger than in the dark, providing evidence for the photoactivation and the concomitant covalent binding of the azidated inhibitors to their target receptors.
To test the inhibitory effect of the compounds with light and without light on tubulogenesis [Staton et al., 2009], we have used human retinal microvascular endothelial cells (HRMEC) from Cell Systems (Kirkland, WA 98033, cat. N^o: ACBRI 181). VEGF165 (Invitrogen) was only used as a positive control in these experiments, otherwise tubulogenesis relied on endogenous VEGF produced by the culture.
Assays were performed in a 96-well cell culture plate (Biologix). The basement membrane matrix Geltrex (Invitrogen) was thawed on ice overnight before use. 50 μl Geltrex was added to each well with a chilled pipette, then the plate was centrifuged at 2000 rpm for 10 min at 4° C. Subsequently the matrix was let solidify in a humidified incubator at 37° C. for at least 30 minutes. Before seeding, HRMEC cells were treated with compounds (0.1 nM-10 μM) in EBM-2 medium (Lonza) in the dark. After 5 minutes, 100 μl of suspension of treated cells was seeded into each Geltrex-coated well of the plate at a density of 10^3 cells/well and then exposed to light treatment (cold white LED light) for 10 min at 37° C. and 5% CO2 or kept in the dark (control plate) in the incubator during light treatment. Subsequently both the irradiated and the control plates were left in the incubator for 12 hours so that the tubulogenesis can proceed. […]

neovascular AMD [2] = settings: oral, phase I, patients; cited from earlier work
neovascular AMD [3] = settings: oral, phase II, trial prematurely stopped; cited from earlier work
[4] = cold white LED light for the first 10 min of 1 h pre-incubation, read-out: IC50 Light
[5] = kept in the dark, read-out: IC50 Dark
[6] = Homo sapiens, HRMEC, 10 min, cold white LED light 10 min, no Ko-143, read-out: IC50 Light
[7] = Homo sapiens, HRMEC, dark, no Ko-143, read-out: IC50 Dark

SMILES | IC50 (VEGFR2; [4]) [µM] | IC50 (VEGFR2; [5]) | Dark/Light (VEGFR2) | IC50 [1, 6] [µM] | IC50 [1, 7] [µM] | Dark/Light ([1]; no Ko-143) | efficacy against neovascular AMD (neovascular AMD [2]) | adverse effects (neovascular AMD [3]) | effect on tubulogenesis ([1]; result in words) | IC50 ([1]; cold white LED light 10 min, 500 nM of Ko-143 in the medium, read-out: IC50 Light) [µM] | IC50 ([1]; Homo sapiens, HRMEC, 10 min, cold white LED light 10 min, 500 nM of Ko-143 in the medium, read-out: IC50 Light) [µM] | Dark/Light ([1]; 500 nM of Ko-143)
CCN(CC)CCNC(=O)c1c(C)[nH]c(/C=C2\C(=O)Nc3cc(N=[N+]=[N-])c(F)cc32)c1C [6-azido-sunitinib (3), 6-azido-sunitinib] | 0.0117 | 0.0532 µM | 4.57 | 0.087 | 0.228 | 2.62 | – | – | – | – | – | –
CCN(CC)CCNC(=O)c1c(C)[nH]c(/C=C2\C(=O)Nc3cc(F)c(N=[N+]=[N-])cc32)c1C [5-defluoro-5-azido-6-fluoro-sunitinib] | 0.00886 | 0.069 µM | 7.79 | – | – | – | – | – | – | – | – | –
Cc1[nH]c(/C=C2\C(=O)Nc3cc(N=[N+]=[N-])ccc32)c(C)c1C(=O)N[C@H]1CCN(C(=O)N(C)C)C1 [5-defluoro-6-azido-vorolanib (7), 5-defluoro-6-azido-vorolanib] | 0.0101 | 0.0534 µM | 5.29 | – | – | – | – | – | – | – | – | –
Cc1[nH]c(/C=C2\C(=O)Nc3ccc(F)cc32)c(C)c1C(=O)N[C@H]1CCN(C(=O)N(C)C)C1 [vorolanib] | – | – | – | – | – | – | effective | hepatobiliary and gastrointestinal adverse effects; also recorded: intolerable levels of side effects | – | – | – | –
CCN(CC)CCNC(=O)c1c(C)[nH]c(/C=C2\C(=O)Nc3cc(N=[N+]=[N-])ccc32)c1C [5-defluoro-6-azido-sunitinib (2), 5-defluoro-6-azido-sunitinib] | 0.0093 | 0.0937 µM | 10.074 | 0.432 | 1.09 | 2.52 | – | – | – | – | – | –
CCN(CC)CCNC(=O)c1c(C)[nH]c(/C=C2\C(=O)Nc3ccc(N=[N+]=[N-])cc32)c1C [5-defluoro-5-azido-sunitinib (1), 5-defluoro-5-azido-sunitinib] | 0.0368 | 0.263 µM | 7.136 | 0.951 | 3.54 | 3.72 | – | – | – | – | – | –
COc1ccc2c3c([nH]c2c1)[C@H](CC(C)C)N1C(=O)[C@H](CCC(=O)OC(C)(C)C)NC(=O)[C@@H]1C3 [Ko-143, reference compound] | – | – | – | – | – | – | – | – | no effect | – | – | –
CCN(CC)CCNC(=O)c1c(C)[nH]c(/C=C2\C(=O)Nc3cc(Cl)c(N=[N+]=[N-])cc32)c1C [5-defluoro-5-azido-6-chloro-sunitinib] | 0.00223 | 0.0404 µM | 18.12 | 0.168 | 0.655 | 3.48 | – | – | – | – | – | –
CCN(CC)CCNC(=O)c1c(C)[nH]c(/C=C2\C(=O)Nc3cc(Br)c(N=[N+]=[N-])cc32)c1C [5-defluoro-5-azido-6-bromo-sunitinib (6), 5-defluoro-5-azido-6-bromo-sunitinib] | 0.0035 | 0.0604 µM and 0.0607 µM | 17.25 | – | – | – | – | – | – | – | – | –
Cc1[nH]c(/C=C2\C(=O)Nc3cc(Cl)c(N=[N+]=[N-])cc32)c(C)c1C(=O)N[C@H]1CCN(C(=O)N(C)C)C1 [5-defluoro-5-azido-6-chloro-vorolanib] | 0.000921 | 0.0578 µM | 62.80 | – | – | – | – | – | – | 0.173 | 0.135 | 3.97
